Measured values published in ChEMBL document CHEMBL1126986, “Nonsteroidal inhibitors of human type I steroid 5-alpha-reductase” (J Med Chem, 1993).

molecular target: T1, 3-oxo-5-alpha-steroid 4-dehydrogenase 1 (Homo sapiens, UniProt P18405); experiment: In vitro inhibition of DHT production in Hs 68 (human genital fibroblast) cells.
T1 sequence (P18405 whole entry): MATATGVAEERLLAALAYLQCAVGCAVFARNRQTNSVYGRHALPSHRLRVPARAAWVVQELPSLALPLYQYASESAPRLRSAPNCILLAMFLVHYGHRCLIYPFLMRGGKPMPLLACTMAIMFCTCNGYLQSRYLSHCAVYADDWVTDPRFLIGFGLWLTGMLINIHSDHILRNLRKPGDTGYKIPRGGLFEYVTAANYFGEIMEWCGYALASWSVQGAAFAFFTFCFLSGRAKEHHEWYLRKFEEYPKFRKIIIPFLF

Row | SMILES | IC50 [nM]
1 | O=C1CCC2=C(CCc3cc(F)ccc32)N1 | 600
2 | COc1ccc2c(c1)CC[C@@H]1[C@@H]2CCC(=O)N1C | 120
3 | O=C1CCC2=C(CCc3ccccc32)N1 | 6500
4 | CN1C(=O)CCC2=C1CCc1cc(Cl)ccc12 | 30
5 | O=C1CCC2=C(CCc3ccc(F)cc32)N1 | 2300
6 | CN1C(=O)CC[C@@H]2c3ccccc3CC[C@H]21 | 560
7 | CN1C(=O)CCC2(C)C1=CCc1cc(Cl)ccc12 (stereo not drawn) | 120
8 | CN1C(=O)CC[C@@H]2c3ccc(F)cc3CC[C@@H]21 | 320
9 | O=C1CCC2=C(CCc3c(F)cccc32)N1 | 3200

The remaining lines, values ahead:

Row | IC50 [nM] | SMILES
10 | 8 | CN1C(=O)CC[C@@H]2c3ccc(Cl)cc3CC[C@H]21 [BEXLOSTERIDE]
11 | 17 | CN1C(=O)CC[C@]2(C)c3ccc(Cl)cc3CC[C@@H]12
12 | 11 | Cc1ccc2c(c1)CC[C@@H]1[C@@H]2CCC(=O)N1C
13 | 7500 | CC(C)(C)NC(=O)[C@H]1CC[C@H]2[C@@H]3CC=C4C=C(C(=O)O)CC[C@]4(C)[C@H]3CC[C@]12C [EPRISTERIDE]
14 | 35 | CN1C(=O)CC[C@@H]2c3ccc(F)cc3CC[C@H]21
15 | 460 | O=C1CCC2=C(CCc3cc(Cl)ccc32)N1
16 | 60 | O=C1CC[C@@H]2c3ccc(Cl)cc3CC[C@H]2N1
17 | 41 | CN1C(=O)CC[C@@H]2c3ccc(Cl)cc3CC[C@@H]21
18 | 3600 | CC12CCC(=O)NC1=CCc1cc(Cl)ccc12 (stereo not drawn)
19 | 10000 | O=C1CCC2=C(CCc3cccc(F)c32)N1
20 | 1800 | C[C@]12CCC(=O)N[C@@H]1CCc1cc(Cl)ccc12

molecular target: T2, 3-oxo-5-alpha-steroid 4-dehydrogenase 2 (Homo sapiens, UniProt P31213); experiment: Compound was tested for inhibition of Type II 5-alpha-reductase in Human Prostate Homogenates (HPH)
T2 sequence (P31213 whole entry): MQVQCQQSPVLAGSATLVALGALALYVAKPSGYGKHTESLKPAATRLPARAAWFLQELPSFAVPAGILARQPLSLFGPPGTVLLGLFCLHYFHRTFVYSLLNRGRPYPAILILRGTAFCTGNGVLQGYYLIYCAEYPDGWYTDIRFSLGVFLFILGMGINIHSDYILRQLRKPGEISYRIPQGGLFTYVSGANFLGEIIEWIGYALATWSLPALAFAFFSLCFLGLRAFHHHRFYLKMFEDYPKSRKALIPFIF

Row | IC50 [nM] | SMILES
21 | > 10000 | CN1C(=O)CC[C@@H]2c3ccc(Cl)cc3CC[C@H]21 [BEXLOSTERIDE]
22 | 8 | CC(C)(C)NC(=O)[C@H]1CC[C@H]2[C@@H]3CC=C4C=C(C(=O)O)CC[C@]4(C)[C@H]3CC[C@]12C [EPRISTERIDE]

molecular target: T1, 3-oxo-5-alpha-steroid 4-dehydrogenase 1; experiment: Compound was tested for inhibition of Type I 5-alpha-reductase in Human genital skin (Hs68) foreskin fibroblast cells.; assay type: cell-based

Row | IC50 [nM] | SMILES
23 | 62 | CC(C)(C)NC(=O)[C@H]1CC[C@H]2[C@@H]3CC[C@H]4NC(=O)C=C[C@]4(C)[C@H]3CC[C@]12C [FINASTERIDE]
